Experimental data reported in PubChem BioAssay AID484 (The Scripps Research Institute Molecular Screening Center, 2006).
Calls of active or inactive are those of the source. No rule for the calls is given here.

Target: Sphingosine 1-phosphate receptor 3 (Homo sapiens) (UniProt Q99500)
Experiment: blockade of S1P-driven S1P3 signaling – cell-based, dose response (AID 484)
Conditions: S1P3-expressing cells, antagonist inhibition of S1P response

Sequence of Sphingosine 1-phosphate receptor 3 (Homo sapiens) (Q99500 whole entry, looked up): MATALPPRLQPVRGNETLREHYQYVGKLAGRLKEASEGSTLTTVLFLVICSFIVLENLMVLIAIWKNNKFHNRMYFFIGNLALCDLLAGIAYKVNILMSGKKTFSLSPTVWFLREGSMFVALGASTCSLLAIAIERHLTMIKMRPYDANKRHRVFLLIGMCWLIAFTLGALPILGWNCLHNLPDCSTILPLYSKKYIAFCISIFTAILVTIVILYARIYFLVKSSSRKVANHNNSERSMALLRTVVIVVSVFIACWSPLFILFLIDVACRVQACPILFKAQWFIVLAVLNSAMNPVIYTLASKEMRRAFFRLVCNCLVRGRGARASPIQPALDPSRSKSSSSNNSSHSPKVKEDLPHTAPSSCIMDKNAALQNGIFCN

SMILES	IC50
COc1ccc(OC)c(C2C(C(C)=O)=C(O)C(=O)N2CCC(=O)O)c1 (stereo unspecified)	> 49.8 µM (inactive)
COC(=O)C1=C(N)Oc2cc(N(C)C)ccc2C1c1ccccc1OC (stereo unspecified)	> 16.6 µM (inactive)
COC(=O)C1=C(N)Oc2cc(C)n(C)c(=O)c2C1c1ccc(Cl)cc1 (stereo unspecified)	> 49.8 µM (inactive)
CN1CCN(C(=O)OC2c3nccnc3C(=O)N2c2ccc(Cl)cn2)CC1 (stereo unspecified)	> 49.8 µM (inactive)
O/C(=C\Sc1nnc(Cc2ccccc2)o1)c1ccc(Br)cc1	> 49.8 µM (inactive)
CC1(C)CC(=O)CC(=Nc2ccc(C(=O)O)cc2)C1	> 49.8 µM (inactive)
COc1ccc(CC2C(=O)NC(=O)N(c3ccccc3)C2=O)c(OC)c1 (stereo unspecified)	> 49.8 µM (inactive)
CC(=O)C1=C(C)Nc2ncnn2C1c1ccc(Cl)cc1 (stereo unspecified)	> 49.8 µM (inactive)
Cc1ccc(S(=O)(=O)N2CC(=NO)C2)cc1	> 49.8 µM (inactive)
N#CC1=C(N)Oc2cc3c(cc2C1c1ccc(Cl)cc1)OCO3 (stereo unspecified)	inactive
COc1cccc(N2C(=O)C(CC(=O)Nc3ccc(F)cc3)N(C3CCCCC3)C2=O)c1 (stereo unspecified)	> 49.8 µM (inactive)
